Test system: PBMC of RRMS patients
Assay: Gene expression microarray analysis (HG-U133A-2) of PBMC from RRMS patients treated with LAQ, ancillary study to ALLEGRO
Assay type: in vivo, human
Settings: for Fold-Change (1.0 vs. 0.0): one month of treatment
Text: The goal of this ancillary study was to characterize gene expression changes and corresponding biological mechanisms induced in PBMC of RRMS patients by LAQ treatment. According to ALLEGRO clinical trial inclusion criteria, 25 patients were randomly assigned to receive LAQ (n=13, age 38.8±2.3 years, female/male ratio: 8/5) or placebo (n=12, age 37.2±3.4 years, female/male ratio: 8/4).
Peripheral blood samples were obtained from RRMS patients at baseline before start of LAQ treatment or placebo, after 0, 1, 6 and 24 month of treatment (visit 0, 1, 6 and 7 according to ALLEGRO clinical trial protocol correspondently) for gene microarray analysis.
Briefly, 1) Peripheral blood mononuclear cells (PBMC) were obtained from RRMS patients that participated in ALLEGRO and were treated daily with 0.6 mg LAQ or placebo. PBMC were subjected for gene expression analysis (HU-133A-2-Affymatrix arrays) at baseline and at 1 and 6 months of LAQ treatment; 2) Data was analyzed by Partek Genomics Solution software. Most informative genes (MIGs) were defined as those that differentiated between groups with p<0.01. Gene functional annotation, enrichment and pathway analysis were performed by Ingenuity software. For each time point, genes that changed in placebo group were excluded from further analysis; and 3) Verification of LAQ related mechanism was performed by Western blot.
PBMC were extracted from 15 ml peripheral blood, separated by Ficoll-Hypaque gradient. Total RNA was extracted using both Trizol (Invitrogen, USA) and Phase-Lock-Gel columns (Eppendorf, Germany) including a DNase digestion step. RNA integrity was assessed by RNA Experion automated electrophoresis system (Bio-Rad Laboratories, Hercules, Calif.).
Probe synthesis using 3 μg total RNA, hybridization, detection, and scanning was performed according to the standard Affymetrix, Inc. USA protocols; cDNA was synthesized using the Two-Cycle cDNA Synthesis Kit (Affymetrix, Inc., USA), and in-vitro transcription performed with the GeneChip IVT Labeling Kit (Affymetrix, Inc., USA). The biotin-labeled IVT-RNA was hybridized to HG-U133A-2 arrays containing 18,400 gene transcripts, each corresponding to 14,500 well-annotated human genes, washed in a GeneChip Fluidics Station 450 (Hewlett Packard, USA, GeneArray-™ scanner G2500A) and scanned according to the manufacturer's protocol (Affymetrix, Inc., USA).
Data analysis was performed on Partek Genomics Solution software (www.partek.com; Partek Incorporated, St. Louis, Mo.). Expression values were computed from raw CEL files by applying the Robust Multi-Chip Average (RMA) background correction algorithm. RMA correction included: 1) values background correction; 2) quintile normalization; 3) log 2 transformation; and 4) median polish summarization. The ANOVA, Repeated Measures and correlation analysis implicated in Partek software ware applied to evaluate LAQ effects. Most informative genes MIGs were defined as those that differentiated between experimental groups with p<0.01. All p-values were calculated for False Discovery Rate (FDR) multiple test correction at p=0.05.
Additionally, significance of individual genes was tested by parametric T-test and non parametric Mann-Whitney test using Bootstrapping approach based on repeated permutations of the data with 5% FDR for multiple testing.
Gene functional annotation, enrichment, and pathway analyses to identify the leading biological pathways that operated under LAQ treatment were performed by Ingenuity Pathways Analysis software (www.ingenuity.com).
ANOVA analysis was used to compare PBMC gene expression after 1, 6 or 24 month of LAQ treatment with baseline gene expression.
For each time point inventors performed analysis source of variation in dataset. (FIG. 1). Age, gender and batch effects were considered as confounders regarding LAQ or Placebo related changes. For each time point genes associated with Placebo effect were evaluated and excluded from further analysis. […]

## CCN(C(=O)c1c(O)c2c(Cl)cccc2n(C)c1=O)c1ccccc1 [LAQ, 5-chloro-N-ethyl-4-hydroxy-1-methyl-2-oxo-N-phenyl-1,2-dihydroquinoline-3-carboxamide]
LYVE1 220037_s_at
  Fold-Change (1.0 vs. 0.0): −1.139
MARCH6 201736_s_at
  Fold-Change (1.0 vs. 0.0): −1.139
MAX 210734_x_at
  Fold-Change (1.0 vs. 0.0): −1.284
MFAP3L 205442_at
  Fold-Change (1.0 vs. 0.0): −1.854
MFAP3L 210493_s_at
  Fold-Change (1.0 vs. 0.0): −1.464
MYL9 201058_s_at
  Fold-Change (1.0 vs. 0.0): −1.74
MYST3 202423_at
  Fold-Change (1.0 vs. 0.0): −1.08
NAT8B 206964_at
  Fold-Change (1.0 vs. 0.0): −1.746
NENF 218407_x_at
  Fold-Change (1.0 vs. 0.0): −1.141
NRGN 204081_at
  Fold-Change (1.0 vs. 0.0): −1.604
PDE5A 206757_at
  Fold-Change (1.0 vs. 0.0): −1.213
PDGFA 205463_s_at
  Fold-Change (1.0 vs. 0.0): −1.536
PGRMC1 201120_s_at
  Fold-Change (1.0 vs. 0.0): −1.432
PGRMC1 201121_s_at
  Fold-Change (1.0 vs. 0.0): −1.443
POPDC3 219926_at
  Fold-Change (1.0 vs. 0.0): −1.1575
POU1F1 207846_at
  Fold-Change (1.0 vs. 0.0): −1.091
PPM1A 203966_s_at
  Fold-Change (1.0 vs. 0.0): −1.182
PRKG1 207119_at
  Fold-Change (1.0 vs. 0.0): −1.185
PRPF4B 202127_at
  Fold-Change (1.0 vs. 0.0): −1.135
PSD3 218613_at
  Fold-Change (1.0 vs. 0.0): −1.258
PTCRA 211837_s_at
  Fold-Change (1.0 vs. 0.0): −1.274
PTCRA 215492_x_at
  Fold-Change (1.0 vs. 0.0): −1.526
PTGIS 210702_s_at
  Fold-Change (1.0 vs. 0.0): −1.095
RBM25 212031_at
  Fold-Change (1.0 vs. 0.0): −1.105
RET 211421_s_at
  Fold-Change (1.0 vs. 0.0): −1.221
SDPR 218711_s_at
  Fold-Change (1.0 vs. 0.0): −1.662
SELP 206049_at
  Fold-Change (1.0 vs. 0.0): −1.642
SEPT6 214298_x_at
  Fold-Change (1.0 vs. 0.0): −1.133
SF3B1 201071_x_at
  Fold-Change (1.0 vs. 0.0): −1.0879
SLC37A1 218928_s_at
  Fold-Change (1.0 vs. 0.0): −1.126
SPARC 200665_s_at
  Fold-Change (1.0 vs. 0.0): −1.776
SPARC 212667_at
  Fold-Change (1.0 vs. 0.0): −1.73
SRRT 201680_x_at
  Fold-Change (1.0 vs. 0.0): −1.118
TAL1 206283_s_at
  Fold-Change (1.0 vs. 0.0): −1.752
TAS2R4 221392_at
  Fold-Change (1.0 vs. 0.0): −1.203
TBXA2R 336_at
  Fold-Change (1.0 vs. 0.0): −1.433
TGFB1 203085_s_at
  Fold-Change (1.0 vs. 0.0): −1.24
TMED10 200929_at
  Fold-Change (1.0 vs. 0.0): −1.099
TNFSF4 207426_s_at
  Fold-Change (1.0 vs. 0.0): −1.7061
TPM1 210986_s_at
  Fold-Change (1.0 vs. 0.0): −1.555
TPM1 210987_x_at
  Fold-Change (1.0 vs. 0.0): −1.447
TPTE 220205_at
  Fold-Change (1.0 vs. 0.0): −1.158
TRIM58 215047_at
  Fold-Change (1.0 vs. 0.0): −1.777
TUBB2B 214023_x_at
  Fold-Change (1.0 vs. 0.0): −1.159
VCL 200931_s_at
  Fold-Change (1.0 vs. 0.0): −1.406
WASF3 204042_at
  Fold-Change (1.0 vs. 0.0): −1.606
WDR48 222157_s_at
  Fold-Change (1.0 vs. 0.0): −1.103
XK 206698_at
  Fold-Change (1.0 vs. 0.0): −1.88
XYLT1 213725_x_at
  Fold-Change (1.0 vs. 0.0): 1.314
ZNF415 205514_at
  Fold-Change (1.0 vs. 0.0): −1.154
After one month of LAQ treatment
  p, differential expression of cellular movement and migration: 3.49*10^−4
After one month of treatment
  genes (#), Caveolar mediated endocytosis: 8
  genes (#), Cellular movement: Adhesion & migration of phagocytes: 9
  genes (#), Chemotaxis of neutrophils: 4
  genes (#), Clathrin mediated endocytosis: 12
  genes (#), Hematological system: Activation of blood platelets: 13
  genes (#), Hematological system: Aggregation of blood cells: 19
  genes (#), Hematological system: Aggregation of blood platelets: 18
  genes (#), Hematological system: Coagulation of blood: 14
  genes (#), Inflammatory response: Adhesion of phagocytes: 9
  genes (#), Inflammatory response: TGFb signaling: 10
  genes (#), Transmigration of leukocytes: 8

— US20160201132A1, “GENE EXPRESSION BIOMARKERS OF LAQUINIMOD RESPONSIVENESS” (Teva Pharmaceutical Industries Ltd., priority 2013, published 2016)
